According to the NIST ThermoML archive (doi:10.1016/j.jct.2014.12.020):
Numbers after ± are expanded uncertainties.

Test: wn = mass fraction of the nth substance listed
Details: 100 kPa, Liquid; for viscosity: Concentric cylinders viscometry; for mass density: Vibrating tube method

C[C@H](O)C(=O)[O-].C[N+](C)(C)CCO + O
Details	mass density [kg/m3]	viscosity [mPa·s]
293.15 K, w2 = 0.004	1140.9 ± 1.4	3661.3 ± 220
293.15 K, w2 = 0.011	1142 ± 1.4	2703 ± 150
293.15 K, w2 = 0.02	1142.3 ± 1.4	1543.3 ± 170
293.15 K, w2 = 0.029	1141.9 ± 1.4	1408.3 ± 66
293.15 K, w2 = 0.045	1140.9 ± 1.4	888 ± 37
293.15 K, w2 = 0.066	1139.9 ± 1.4	546.3 ± 20
293.15 K, w2 = 0.077	1139.3 ± 1.3	421.4 ± 14
293.15 K, w2 = 0.121	1137 ± 1.3	201.3 ± 5.7
293.15 K, w2 = 0.167	1135.4 ± 1.3	119.8 ± 2.9
293.15 K, w2 = 0.218	1131.4 ± 1.2	70.5 ± 1.6
293.15 K, w2 = 0.24	1127.4 ± 1.2	48 ± 1.1
298.15 K, w2 = 0.004	1137.8 ± 1.4	2310.1 ± 120
298.15 K, w2 = 0.011	1138.8 ± 1.4	1732.1 ± 85
298.15 K, w2 = 0.02	1139 ± 1.4	1021 ± 110
298.15 K, w2 = 0.029	1138.5 ± 1.4	936.5 ± 40
298.15 K, w2 = 0.045	1137.5 ± 1.4	604.3 ± 23
298.15 K, w2 = 0.066	1136.5 ± 1.4	380.6 ± 13
298.15 K, w2 = 0.077	1136 ± 1.3	297.1 ± 9.3
298.15 K, w2 = 0.121	1133.7 ± 1.3	146.7 ± 3.8
298.15 K, w2 = 0.167	1132.1 ± 1.3	89.1 ± 2.1
298.15 K, w2 = 0.218	1128.1 ± 1.2	53.6 ± 1.2
298.15 K, w2 = 0.24	1124.1 ± 1.2	37.1 ± 0.8
303.15 K, w2 = 0.004	1134.7 ± 1.4	1510.1 ± 72
303.15 K, w2 = 0.011	1135.6 ± 1.4	1150.1 ± 51
303.15 K, w2 = 0.02	1135.7 ± 1.4	697.5 ± 74
303.15 K, w2 = 0.029	1135.2 ± 1.4	642.3 ± 25
303.15 K, w2 = 0.045	1134.2 ± 1.4	423.6 ± 15
303.15 K, w2 = 0.066	1133.3 ± 1.4	272.7 ± 8.3
303.15 K, w2 = 0.077	1132.7 ± 1.3	215.2 ± 6.2
303.15 K, w2 = 0.121	1130.5 ± 1.3	109.4 ± 2.6
303.15 K, w2 = 0.167	1128.9 ± 1.3	67.8 ± 1.5
303.15 K, w2 = 0.218	1124.8 ± 1.2	41.6 ± 0.9
303.15 K, w2 = 0.24	1120.8 ± 1.2	29.2 ± 0.7
308.15 K, w2 = 0.004	1131.7 ± 1.4	1019.4 ± 44
308.15 K, w2 = 0.011	1132.4 ± 1.4	787.6 ± 32
308.15 K, w2 = 0.02	1132.4 ± 1.4	490.6 ± 51
308.15 K, w2 = 0.029	1131.8 ± 1.4	453.5 ± 16
308.15 K, w2 = 0.045	1130.9 ± 1.4	305 ± 9.6
308.15 K, w2 = 0.066	1130.1 ± 1.3	200.4 ± 5.6
308.15 K, w2 = 0.077	1129.6 ± 1.3	159.8 ± 4.2
308.15 K, w2 = 0.121	1127.3 ± 1.3	83.5 ± 1.9
308.15 K, w2 = 0.167	1125.8 ± 1.2	52.6 ± 1.2
308.15 K, w2 = 0.218	1121.6 ± 1.2	32.9 ± 0.7
308.15 K, w2 = 0.24	1117.6 ± 1.2	23.4 ± 0.5
313.15 K, w2 = 0.004	1128.6 ± 1.4	708.4 ± 28
313.15 K, w2 = 0.011	1129.1 ± 1.4	554.7 ± 21
313.15 K, w2 = 0.02	1129.2 ± 1.4	354.1 ± 37
313.15 K, w2 = 0.029	1128.6 ± 1.4	328.4 ± 11
313.15 K, w2 = 0.045	1127.8 ± 1.4	225 ± 6.5
313.15 K, w2 = 0.066	1126.9 ± 1.3	150.7 ± 3.9
313.15 K, w2 = 0.077	1126.4 ± 1.3	121.4 ± 3
313.15 K, w2 = 0.121	1124.2 ± 1.3	65 ± 1.4
313.15 K, w2 = 0.167	1122.6 ± 1.2	41.7 ± 0.9
313.15 K, w2 = 0.218	1118.5 ± 1.2	26.4 ± 0.6
313.15 K, w2 = 0.24	1114.5 ± 1.2	18.9 ± 0.4
318.15 K, w2 = 0.004	–	505.4 ± 18
318.15 K, w2 = 0.011	–	400.7 ± 14
318.15 K, w2 = 0.02	–	261.6 ± 27
318.15 K, w2 = 0.029	–	243.5 ± 7.2
318.15 K, w2 = 0.045	–	169.7 ± 4.6
318.15 K, w2 = 0.066	–	115.6 ± 2.8
318.15 K, w2 = 0.077	–	94 ± 2.2
318.15 K, w2 = 0.121	–	51.5 ± 1.1
318.15 K, w2 = 0.167	–	33.6 ± 0.7
318.15 K, w2 = 0.218	–	21.6 ± 0.5
318.15 K, w2 = 0.24	–	15.8 ± 0.4
